Measured values from patent publication US8524765B2, “Compounds that modulate intracellular calcium” (Calcimedica, Inc., priority 2007, dated 2013).
“Also recorded” adds a separate entry of the source.

What was measured:
SOCE in rat T cells = assay: SOCE in rat T cells; assay type: cell-based; details: T-cell, FIG. 5, read-out: IC50 for inhibition of SOCE
RBL-2H3 cells [1] = assay: TNF-α release assay (ELISA); assay type: cell-based; details: Rattus norvegicus; RBL-2H3 cells induced with TG/TPA; FIG. 3; read-out: IC50 for inhibition of TNF-alpha release
Procedure: (§1) To assess degranulation and cytokine release, RBL-2H3 cells were plated and stimulated with 20 nM thapsigargin/20 nM TPA for 20 hr in the presence or absence of compound of Formula (I) or Formula (II). Media was collected and assayed for the release of β-hexosaminidase or for the release of the inflammatory mediator cytokine TNF-α. The β-hexosaminidase enzymatic assay was performed by adding 200 μL 1 mM p-nitrophenyl-acetyl-glucosamide substrate (Sigma #N9376) in 0.05M Na Citrate (pH 4.5) to 50 μL of conditioned medium, incubating for 60 min at 37° C., then adding 500 μL 0.05M Na carbonate, 0.05M Na bicarbonate pH 10.5, mixing thoroughly, and reading the absorbance at 405 nm in a BioRad plate reader. The TNF-α release assay was performed using the Rat Tumor Necrosis Factor-a Ultrasensitive ELISA Kit from BioSource.

HEK[STIM1] cells = assay: STIM1-dependent Ca2+ entry in STIM1-overexpressing cells; assay type: cell-based, human; details: HEK293 overexpressing STIM1, no Tg store depletion; FIG. 13
Procedure: To test whether the Ca^2+ entry pathway activated by STIM1 overexpression is pharmacologically similar to endogenous SOCE, HEK[STIM1] cells were pre-incubated with increasing doses of 2-APB and STIM1-dependent Ca^2+ entry was measured.

rat T cells = assay: IL-2 secretion in rat T cells; assay type: cell-based; details: T-cell, FIG. 5, read-out: IC50 for inhibition of IL-2 secretion
[2] = system: store-operated calcium entry in RBL-2H3 cells; assay: Fluorescence (FLUO-4/FLIPR384) store-operated calcium entry screening assay; assay type: cell-based, rat
Procedure: Fluorescence-based assays were used for screening the compounds described herein, such as compounds of Formula (I) and Formula (II), which modulate intracellular calcium.
RBL-2H3 cells plated in 384-well plates were loaded for 45 min with FLUO-4-AM (2 μM final concentration) in HBSS. Cells were washed and placed in a nominally Ca^2+- and Mg^2+-free Hanks solution. One minute later, a test agent or vehicle was added. After a 15 minute incubation period, 1 μM thapsigargin (Tg) was added to inhibit the ER Ca^2+ pump and discharge intracellular Ca^2+ stores. Fifteen minutes after addition of Tg, store-operated calcium entry was initiated by adding external Ca^2+ to a final concentration of 1.8 mM and the cells monitored for a further 10-15 minutes. Calcium levels were monitored throughout the assay using a FLIPR^384 (Molecular Devices fluorimetric imaging plate reader for high throughput screening).
A similar screening assay procedure was used with HEK293 and RBL-2H3 cells.
The kinetic data from the FLIPR^384 were analyzed and then stored in a relational database (ActivityBase; IDBS). Ten quantitative parameters were calculated that define various aspects of the store-operated calcium entry response. These parameters are as follows:
Up slope: linear regression of the increase in RFU from 2 to 30 sec after addition of Ca^2+.
Combinations of these parameters were used to characterize the compounds of Formula (I). Compounds were retested under identical conditions to confirm their activity. Compounds with confirmed activity were then analyzed for concentration-dependent effects, and subsequently, those compounds displaying concentration-dependent effects were categorized as compounds that modulate intracellular calcium.

[3] = Rat collagen induced arthritis (CIA) model, liver weight; assay type: in vivo; details: given orally, FIG. 11
Procedure: 40 rats are injected with collagen to get 40 solid responders on days 10,11 for 4 groups of 10. Four nonimmunized animals serve as normal controls.
Collagen is prepared by making a 4 mg/ml solution in 0.01N Acetic acid. Equal volumes of collagen and Freund's incomplete adjuvant, are emulsified by hand mixing until a bead of this material holds its form when placed in water.
Animals (10 rats/group for arthritis, 4 rats/group for normal control).
Animals in groups 2-5 are anesthetized with isoflurane and given collagen injections (DO); each animal gets 300 μl of the mixture spread over 3 subcutaneous sites on the back. On Day 6 (D6) the animals are anesthetized again and given a second collagen injection, as before.
Rats are weighed on Days 0, 3, 6, and 9-17 of arthritis, and caliper measurements of ankles taken every day beginning on Day 9. Final body weights are taken on Day 17 of arthritis. On Day 17, all animals are anesthetized for terminal blood draw and then euthanized. Subsequently, hind paws and knees are removed, the hind paws are weighed and then (with knees) placed in formalin for processing for microscopy. Livers, spleen and thymus and kidneys are also removed, trimmed of extraneous tissue and weighed. Kidneys are retained in formalin for histopathology.
Sampling will occur over 1 day and involves groups 2-5 with samples retained from all groups.

hOrail/hSTIM1 = target: T1, hOrail/hSTIM1 (Homo sapiens, UniProt Q96D31); assay: Monster ICRAC in cells stably overexpressing hOrail/hSTIM1; assay type: cell-based; details: FIG. 15
T1 construct: expressed in transfected cells

RBL-2H3 cells [4] = assay: Degranulation (β-hexosaminidase release) assay; assay type: cell-based; details: Rattus norvegicus
Procedure: as §1

T1 sequence (Q96D31 whole entry): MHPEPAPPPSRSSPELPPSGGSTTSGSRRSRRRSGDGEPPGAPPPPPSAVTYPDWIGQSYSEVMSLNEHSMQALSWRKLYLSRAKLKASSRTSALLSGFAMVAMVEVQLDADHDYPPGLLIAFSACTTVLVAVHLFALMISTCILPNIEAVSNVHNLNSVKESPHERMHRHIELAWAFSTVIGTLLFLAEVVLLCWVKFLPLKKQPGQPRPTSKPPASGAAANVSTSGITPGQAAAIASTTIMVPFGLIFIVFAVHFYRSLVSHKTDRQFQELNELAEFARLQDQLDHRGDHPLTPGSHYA
T1 sequence (Q13586 23-685 partner): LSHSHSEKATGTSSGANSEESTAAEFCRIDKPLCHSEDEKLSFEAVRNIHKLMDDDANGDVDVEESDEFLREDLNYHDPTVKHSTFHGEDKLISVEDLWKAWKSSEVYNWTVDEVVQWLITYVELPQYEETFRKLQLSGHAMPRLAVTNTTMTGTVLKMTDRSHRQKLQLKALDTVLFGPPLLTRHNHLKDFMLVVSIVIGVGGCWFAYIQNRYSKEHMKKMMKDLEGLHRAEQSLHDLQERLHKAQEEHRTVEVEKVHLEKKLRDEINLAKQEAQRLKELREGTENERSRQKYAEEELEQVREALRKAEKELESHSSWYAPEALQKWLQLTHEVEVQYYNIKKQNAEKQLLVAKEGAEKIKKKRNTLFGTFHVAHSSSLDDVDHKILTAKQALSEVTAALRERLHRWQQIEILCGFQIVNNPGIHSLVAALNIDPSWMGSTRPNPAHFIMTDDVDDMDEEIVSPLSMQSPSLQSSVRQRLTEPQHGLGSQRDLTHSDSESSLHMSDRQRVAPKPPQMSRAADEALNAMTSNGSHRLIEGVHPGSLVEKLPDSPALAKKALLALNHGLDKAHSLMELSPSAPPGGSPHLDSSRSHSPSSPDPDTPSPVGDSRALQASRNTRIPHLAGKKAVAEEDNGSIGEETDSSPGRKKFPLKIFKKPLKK

Structure (SMILES): O=C(Nc1scc(-c2ccc(Br)cc2)c1C(=O)O)c1ccc(F)cc1 [Compound 1, 2-(4-fluorobenzamido)-4-(4-bromophenyl)thiophene-3-carboxylic acid]
- IC50 (SOCE in rat T cells): ~2.4 µM
- IC50 (RBL-2H3 cells [1]): 3.3 µM
- effect on STIM1-dependent Ca2+ entry (HEK[STIM1] cells): concentration dependent inhibition; also recorded: blocked
- IC50 (rat T cells): ~2.5 µM
- inhibition of the initial kinetics of the CRAC channel response ([2]; RBL-2H3 cells, FIG. 2): concentration-dependent inhibition
- inhibition at 10 µM ([2]; Rattus norvegicus, RBL-2H3, 10 μM, cell line not stated): > 70%
- IC50 ([2]; Rattus norvegicus, Up slope parameter, RBL-2H3 cells): 2.2 µM
- reduction in liver weight [3]: no liver weight reduction
- effect on Monster ICRAC (hOrail/hSTIM1): inhibit
- IC50 (RBL-2H3 cells [4]; RBL-2H3, 2 hour TG/TPA induction in HBSS+1% serum, 10 minute pretreatment, FIG. 4, read-out: IC50 for inhibition of degranulation, presence of serum): 1 to 3 µM
- IC50 (RBL-2H3 cells [4]; RBL-2H3, 2 hour TG/TPA induction in HBSS, 10 minute pretreatment, FIG. 4, read-out: apparent IC50 for inhibition of degranulation, absence of serum): < 0.3 µM
- IC50 (RBL-2H3 cells [4]; RBL-2H3 cells induced with TG/TPA, FIG. 3, read-out: IC50 for inhibition of degranulation): 2.6 µM
